Values quoted from earlier work, collected in US11013777B2, “Aronia extract for enhancing reaction time and attention” (BioActor BV, priority 2017, dated 2021).

| Compound | share of the total metabolites found in plasma (humans, plasma) | absorption in the small intestine (in vivo) | appearance in plasma post-ingestion (in vivo) | glucuronidated share of the total anthocyanins in plasma and urine (in vivo) |
| --- | --- | --- | --- | --- |
| OC[C@H]1O[C@@H](Oc2cc3c(O)cc(O)cc3[o+]c2-c2ccc(O)c(O)c2)[C@H](O)[C@@H](O)[C@H]1O [cyanidin-3-galactoside] | around 65% |  |  |  |
| anthocyanins |  | poor absorption | Thirty minutes post-ingestion, anthocyanins can be measured in plasma | approximately 55% |
